The target in assay [1] is T1, Recombinant purified human JAK3 (Homo sapiens, UniProt P52333).
T1 construct: purchased Promega V9441
T1 sequence (P52333 1-1124): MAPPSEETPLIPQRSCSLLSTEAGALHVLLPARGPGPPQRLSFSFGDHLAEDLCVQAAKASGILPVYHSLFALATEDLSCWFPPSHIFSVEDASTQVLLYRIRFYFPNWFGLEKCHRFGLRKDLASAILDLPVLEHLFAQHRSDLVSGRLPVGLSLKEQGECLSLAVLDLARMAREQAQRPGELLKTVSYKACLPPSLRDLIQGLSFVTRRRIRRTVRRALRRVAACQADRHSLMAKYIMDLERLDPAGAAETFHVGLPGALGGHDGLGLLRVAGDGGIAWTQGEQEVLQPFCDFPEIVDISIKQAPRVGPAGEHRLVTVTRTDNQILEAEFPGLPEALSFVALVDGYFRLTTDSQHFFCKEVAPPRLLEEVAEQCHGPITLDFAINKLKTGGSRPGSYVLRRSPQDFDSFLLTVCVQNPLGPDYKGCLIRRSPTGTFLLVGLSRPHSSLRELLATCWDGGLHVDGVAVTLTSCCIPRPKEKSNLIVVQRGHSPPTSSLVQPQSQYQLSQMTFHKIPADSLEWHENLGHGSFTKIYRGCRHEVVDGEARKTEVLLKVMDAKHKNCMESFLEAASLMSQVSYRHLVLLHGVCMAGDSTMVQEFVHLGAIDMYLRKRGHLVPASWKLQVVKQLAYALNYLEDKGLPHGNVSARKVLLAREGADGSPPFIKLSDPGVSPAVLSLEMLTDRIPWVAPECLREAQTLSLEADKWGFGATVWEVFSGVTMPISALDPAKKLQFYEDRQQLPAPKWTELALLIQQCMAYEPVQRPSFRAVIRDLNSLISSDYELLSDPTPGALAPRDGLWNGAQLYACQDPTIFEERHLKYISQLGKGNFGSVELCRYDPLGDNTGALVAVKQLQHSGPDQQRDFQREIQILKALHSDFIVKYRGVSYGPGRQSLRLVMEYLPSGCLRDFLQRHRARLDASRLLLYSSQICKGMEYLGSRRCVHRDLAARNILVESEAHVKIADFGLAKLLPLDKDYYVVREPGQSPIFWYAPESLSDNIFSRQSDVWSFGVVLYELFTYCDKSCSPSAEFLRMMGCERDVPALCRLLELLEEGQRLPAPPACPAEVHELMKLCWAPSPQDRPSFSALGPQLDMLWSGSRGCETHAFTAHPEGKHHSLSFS
Description: JAK3 kinase inhibitory activity, ADP-Glo kinase assay (Promega V9441). The conditions noted are these: ATP 5 uM, 4 ng JAK3 per reaction, 1 hour 30 °C, chemiluminescence. In kind it is biochemical. The essentials:
(§1)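 IC50 values come from ADP-Glo luminescence after 1 h kinase reactions at 30 °C in 1% DMSO on 0.2 µg/µL Poly(Glu4,Tyr1) substrate. ATP was 10 µM for BTK (8 ng, buffer containing MnCl2) and 5 µM for JAK3 (4 ng), in Tris-Cl pH 7.5/MgCl2/BSA/DTT.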
(ADP-Glo first removes unused ATP, then detects ADP through luciferase.)

In assay [2] the target is T2, Recombinant purified human BTK (Homo sapiens, UniProt Q06187).
T2 construct: purchased Promega V9071
T2 sequence (Q06187 whole entry): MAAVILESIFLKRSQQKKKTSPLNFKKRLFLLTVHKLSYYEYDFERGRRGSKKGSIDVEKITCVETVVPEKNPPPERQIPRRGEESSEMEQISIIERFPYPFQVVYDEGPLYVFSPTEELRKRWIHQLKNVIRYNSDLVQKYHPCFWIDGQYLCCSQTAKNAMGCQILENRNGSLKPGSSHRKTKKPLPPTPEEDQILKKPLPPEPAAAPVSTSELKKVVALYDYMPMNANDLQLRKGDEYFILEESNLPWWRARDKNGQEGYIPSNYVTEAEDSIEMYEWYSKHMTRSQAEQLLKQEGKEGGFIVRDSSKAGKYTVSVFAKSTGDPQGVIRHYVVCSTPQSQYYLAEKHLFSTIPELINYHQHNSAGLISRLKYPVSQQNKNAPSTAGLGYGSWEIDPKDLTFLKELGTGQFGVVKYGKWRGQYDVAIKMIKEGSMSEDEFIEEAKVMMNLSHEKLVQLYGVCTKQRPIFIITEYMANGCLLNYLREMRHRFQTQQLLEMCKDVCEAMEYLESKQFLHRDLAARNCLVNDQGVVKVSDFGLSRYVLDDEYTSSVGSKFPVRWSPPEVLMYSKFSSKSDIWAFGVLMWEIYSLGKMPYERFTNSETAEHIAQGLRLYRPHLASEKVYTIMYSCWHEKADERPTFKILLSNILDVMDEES
Description: BTK kinase inhibitory activity, ADP-Glo kinase assay (Promega V9071). The conditions noted are these: ATP 10 uM, 8 ng BTK per reaction, 1 hour 30 °C, chemiluminescence. In kind it is biochemical. The procedure, abridged:
as §1

Molecules are shown by their SMILES.

For `CCn1cc(Nc2nc(O[C@@H]3CCCN(C(=O)/C(C#N)=C/C4CC4)C3)c3c(Cl)n[nH]c3n2)cn1` [Example 155, (R,E)-2-(3-((3-chloro-6-((1-ethyl-1H-pyrazol-4-yl)amino)-1H-pyrazolo[3,4-d]pyrimidin-4-yl)oxy)piperidine-1-carbonyl)-3-cyclopropylacrylonitrile], the IC50 in assay [1] was 53.7 nM; in assay [2], 2.2 nM.
On to `CCn1cc(Nc2nc(O[C@@H]3CCCN(C(=O)/C(C#N)=C/C(C)C)C3)c3c(C#N)c[nH]c3n2)cn1` [Example 156, (R,E)-4-((1-(2-cyano-4-methylpent-2-enoyl)piperidin-3-yl)oxy)-2-((1-ethyl-1H-pyrazol-4-yl)amino)-7H-pyrrolo[2,3-d]pyrimidine-5-carbonitrile], for which the values for the IC50 in assay [1] and in assay [2] were 0.5 nM and 1.1 nM, respectively.
Consider `CCn1cc(Nc2nc(O[C@@H]3CCCN(C(=O)/C(C#N)=C/C4CC4)C3)c3c(C#N)c[nH]c3n2)cn1` [Example 157, (R,E)-4-((1-(2-cyano-3-cyclopropylacryloyl)piperidin-3-yl)oxy)-2-((1-ethyl-1H-pyrazol-4-yl)amino)-7H-pyrrolo[2,3-d]pyrimidine-5-carbonitrile], for which the IC50 in assay [1] stood at 0.6 nM; in assay [2], 1.4 nM.
Taken in the same sequence, the figures for `CC(C)/C=C(\C#N)C(=O)N1CCC[C@@H](Oc2nc(Nc3cnn(C4CC4)c3)nc3[nH]nc(Cl)c23)C1` [Example 158, (R,E)-2-(3-((3-chloro-6-((1-cyclopropyl-1H-pyrazol-4-yl)amino)-1H-pyrazolo[3,4-d]pyrimidin-4-yl)oxy)piperidine-1-carbonyl)-4-methylpent-2-enenitrile] were 2.9 nM and 1.2 nM.
`C=CC(=O)N1CC[C@@H](C)[C@@H](N(C)c2nc(Nc3cnn(CC)c3)nc3[nH]nc(Cl)c23)C1` [Example 159]: the 50% inhibitory concentration (IC50) in assay [1] is 27.1 nM; in assay [2] it was 4.5 nM.
As for `CCn1cc(Nc2nc(N[C@H]3CN(C(=O)/C(C#N)=C/C(C)C)CC[C@H]3F)c3c(Cl)n[nH]c3n2)cn1` [Example 160, (E)-2-((3S,4R)-3-((3-chloro-6-((1-ethyl-1H-pyrazol-4-yl)amino)-1H-pyrazolo[3,4-d]pyrimidin-4-yl)amino)-4-fluoropiperidine-1-carbonyl)-4-methylpent-2-enenitrile], the IC50 in assay [1] came out at 1.5 nM; in assay [2], 3.4 nM.
For `CCn1cc(Nc2nc(N[C@H]3CN(C(=O)/C(C#N)=C/C4CC4)CC[C@H]3F)c3c(Cl)n[nH]c3n2)cn1` [Example 161, (E)-2-((3S,4R)-3-((3-chloro-6-((1-ethyl-1H-pyrazol-4-yl)amino)-1H-pyrazolo[3,4-d]pyrimidin-4-yl)amino)-4-fluoropiperidine-1-carbonyl)-3-cyclopropylacrylonitrile], the IC50 is 5 nM in assay [1] and 1.3 nM in assay [2].
On to `CC(C)/C=C(\C#N)C(=O)N1CCC[C@@H](Nc2nc(Nc3cnn(C4CC4)c3)nc3[nH]nc(Cl)c23)C1` [Example 162, (R,E)-2-(3-((3-chloro-6-((1-cyclopropyl-1H-pyrazol-4-yl)amino)-1H-pyrazolo[3,4-d]pyrimidin-4-yl)amino)piperidine-1-carbonyl)-4-methylpent-2-enenitrile], for which the IC50 in assay [1] is 3 nM; in assay [2], 4.8 nM.
Regarding `CC(C)(C)/C=C(\C#N)C(=O)N1CCC[C@@H](Nc2nc(Nc3cnn(C4CC4)c3)nc3[nH]nc(Cl)c23)C1` [Example 163, (R,E)-2-(3-((3-chloro-6-((1-cyclopropyl-1H-pyrazol-4-yl)amino)-1H-pyrazolo[3,4-d]pyrimidin-4-yl)amino)piperidine-1-carbonyl)-4,4-dimethylpent-2-enenitrile], the IC50 in assay [1] was 2.7 nM; in assay [2] it was 1.2 nM.
In the case of `N#C/C(=C\C1CC1)C(=O)N1CCC[C@@H](Nc2nc(Nc3cnn(C4CC4)c3)nc3[nH]nc(Cl)c23)C1` [Example 164, (R,E)-2-(3-((3-chloro-6-((1-cyclopropyl-1H-pyrazol-4-yl)amino)-1H-pyrazolo[3,4-d]pyrimidin-4-yl)amino)piperidine-1-carbonyl)-3-cyclopropylacrylonitrile], the figures for the IC50 in assay [1] and in assay [2] were 8.8 nM and 2.2 nM, respectively.
Taken in the same sequence, the figures for `N#C/C(=C\C1CCCC1)C(=O)N1CCC[C@@H](Nc2nc(Nc3cnn(C4CC4)c3)nc3[nH]nc(Cl)c23)C1` [Example 165, (R,E)-2-(3-((3-chloro-6-((1-cyclopropyl-1H-pyrazol-4-yl)amino)-1H-pyrazolo[3,4-d]pyrimidin-4-yl)amino)piperidine-1-carbonyl)-3-cyclopentylacrylonitrile] were 2.2 nM and 1.9 nM.
As for `CCn1cc(Nc2nc(N[C@@H]3CCCN(C(=O)/C(C#N)=C/C4CC4)C3)c3c(Cl)n[nH]c3n2)cn1` [Example 166], the results for the IC50 in assay [1] and in assay [2] were 5.6 nM and 1.2 nM, respectively.
On to `CCn1cc(Nc2nc(N(C)[C@@H]3CCCN(C(=O)/C(C#N)=C/C4CC4)C3)c3c(Cl)n[nH]c3n2)cn1` [Example 167, (R,E)-2-(3-((3-chloro-6-((1-ethyl-1H-pyrazol-4-yl)amino)-1H-pyrazolo[3,4-d]pyrimidin-4-yl)(methyl)amino)piperidine-1-carbonyl)-3-cyclopropylacrylonitrile], for which the IC50 is 43.1 nM in assay [1] and 1.5 nM in assay [2].
As for `CCn1cc(Nc2nc(N(C)[C@@H]3CCCN(C(=O)/C(C#N)=C/C(C)C)C3)c3c(Cl)n[nH]c3n2)cn1` [Example 168], the IC50 worked out at 18 nM in assay [1] and 4.3 nM in assay [2].
With `CCn1cc(Nc2nc(N[C@H]3CN(C(=O)/C(C#N)=C/C4CC4)CC[C@H]3C)c3c(Cl)n[nH]c3n2)cn1` [Example 169, (E)-2-((3R,4R)-3-((3-chloro-6-((1-ethyl-1H-pyrazol-4-yl)amino)-1H-pyrazolo[3,4-d]pyrimidin-4-yl)amino)-4-methylpiperidine-1-carbonyl)-3-cyclopropylacrylonitrile], the results for the IC50 in assay [1] and in assay [2] were 241 nM and 2.2 nM, respectively.
For the compound `CCn1cc(Nc2nc(N[C@H]3CN(C(=O)/C(C#N)=C/C(C)C)CC[C@H]3C)c3c(Cl)n[nH]c3n2)cn1` [Example 170, (E)-2-((3R,4R)-3-((3-chloro-6-((1-ethyl-1H-pyrazol-4-yl)amino)-1H-pyrazolo[3,4-d]pyrimidin-4-yl)amino)-4-methylpiperidine-1-carbonyl)-4-methylpent-2-enenitrile], the IC50 stood at 11.4 nM in assay [1] and 2.9 nM in assay [2].
Turning to `CCn1cc(Nc2nc(N[C@@H]3CCCN(C(=O)/C(C#N)=C/C4CC4)C3)c3cc[nH]c3n2)cn1` [Example 171, (R,E)-3-cyclopropyl-2-(3-((2-((1-ethyl-1H-pyrazol-4-yl)amino)-7H-pyrrolo[2,3-d]pyrimidin-4-yl)amino)piperidine-1-carbonyl)acrylonitrile], the figures for the IC50 in assay [1] and in assay [2] were 0.9 nM and 2.2 nM, respectively.
As for `CCn1cc(Nc2nc(N[C@@H]3CCCN(C(=O)/C(C#N)=C/C(C)C)C3)c3cc[nH]c3n2)cn1` [Example 172, (R,E)-2-(3-((2-((1-ethyl-1H-pyrazol-4-yl)amino)-7H-pyrrolo[2,3-d]pyrimidin-4-yl)amino)piperidine-1-carbonyl)-4-methylpent-2-enenitrile], the IC50 in assay [1] worked out at 0.9 nM; in assay [2], 1.6 nM.
Regarding `CCn1cc(Nc2nc(S[C@@H]3CCCN(C(=O)/C(C#N)=C/C4CC4)C3)c3cc[nH]c3n2)cn1` [Example 173, (R,E)-3-cyclopropyl-2-(3-((2-((1-ethyl-1H-pyrazol-4-yl)amino)-7H-pyrrolo[2,3-d]pyrimidin-4-yl)thio)piperidine-1-carbonyl)acrylonitrile], the results for the IC50 in assay [1] and in assay [2] were 1 nM and 6 nM, respectively.
With `CCn1cc(Nc2nc(S[C@@H]3CCCN(C(=O)/C(C#N)=C/C(C)C)C3)c3cc[nH]c3n2)cn1` [Example 174, (R,E)-2-(3-((2-((1-ethyl-1H-pyrazol-4-yl)amino)-7H-pyrrolo[2,3-d]pyrimidin-4-yl)thio)piperidine-1-carbonyl)-4-methylpent-2-enenitrile], the figures for the IC50 in assay [1] and in assay [2] were 0.7 nM and 2 nM, respectively.

By IC50 is commonly meant the concentration at which inhibition is half-maximal.

For the origin of these results see patent publication EP3478687B1 (Daewoong Pharmaceutical Co., Ltd., priority 2016, dated 2018).
